Experimental data: patent US20100041896A1, “Macrolide compound with bis-oxazoly” (priority 2008, published 2010)
Converted amounts (≈) assume the structure as drawn.

Tests used:
K562 cells = test: anti-tumor in vitro experiment, K562 cell growth inhibition (trypan blue counting); type: cell-based; settings: Homo sapiens, 48 hours at 37° C., trypan blue living-cell count, read-out: median inhibitory concentration IC50
Procedure: Implementation case 3: anti-tumor in vitro experiments
The cultivation condition for K562 cells (human chronic myeloid leukemia leap cell lines) is: the volume fraction of 10 percent of the calf serum RPMI1640, penicillin (100 IU/ml) and streptomycin (100 μg/ml), at 37° C., 5% CO2 incubation box for cultivation. Take the logarithm growth period cells used for the inhibition rate experiments, with the concentration of cells inoculated 2.5×10^5/ml. In the 96-pore cultivation board, K562 cells are vaccinated with the inoculation amount of about 5×10^4/pore, 200 μl each pore. The drug is dissolved in dimethyl sulfoxide (DMSO), making the storage fluid of 10 mg/ml. Four groups are set up in this experiment, adding different concentrations of drugs respectively, so that the final concentrations are respectively 0.1, 1, 10, 100 μg/ml. There is no drug added for the reference control group, and three parallel holes are set up for each group, cultivating at 37° C. for 48 hours. Taking 0.4 percent trypan blue liquid (take 4 g trypan blue and put it into 100 ml PBS, making four percent trypan blue raw fluid, filtrated and disinfected, stored in 4° C. refrigerator, ready to use. Concentration is of 0.4 percent) and the cell suspension fluid, 50 μl respectively, mixing, and then take appropriate mixed fluid to fill in cell counting board, counting the four big grid non-coloring living cells. […]

[1] = Solubility (physical and chemical properties); type: physicochemical

C/C1=C/[C@H](C)C[C@H](C)[C@H](Cc2cnco2)OC(=O)/C(C)=C\[C@H](C)C[C@H](C)C(Cc2cnco2)OC1=O (stereo partly shown) [FW-04-806]
IC50 (K562 cells): 12.4 µg/mL (≈ 24.8 µM)
Solubility ([1]; in methyl alcohol, ethyl acetate and dimethylsulfoxide): soluble
Solubility ([1]; in n-hexane or petroleum ether): nearly insoluble
Solubility ([1]; in water): insoluble
